Tests used:
HDAC = experiment: In vitro HDAC-inhibition assay (Fluor de Lys fluorescent substrate); type: biochemical; conditions: HDAC enzyme source (e.g. partially purified nuclear extract or immunopurified HDAC complexes)
Experimental: In vitro HDAC-Inhibition Assay:
This assay measures a compound's ability to inhibit acetyl-lysine deacetylation in vitro and was used as both a primary screening method as well as for IC50 determinations of confirmed inhibitors. The assay is performed in vitro using an HDAC enzyme source (e.g. partially purified nuclear extract or immunopurified HDAC complexes) and a proprietary fluorescent substrate/developer system (HDAC Quantizyme Fluor de Lys Fluorescent Activity Assay, BIOMOL). The assay is run in 1,536-well Greiner white-bottom plates using the following volumes and order of addition: • Step 1: Enzyme (2.5 ul) source added to plate (from refrigerated container) • Step 2: Compounds (50 nl) added with pin transfer device • Step 3: Fluor de Lys (2.5 ul) substrate added, incubate at RT, 30 minutes • Step 4: Developer (5 ul) solution is added (containing TSA), to stop reaction • Step 5: Plate Reader—data collection • The deacetylated fluorophore is excited with 360 nm light and the emitted light (460 nm) is detected on an automated fluorometric plate reader (Aquest, Molecular Devices).

HDAC in cells = experiment: Cellular IC50 (cellular assays: histone hyperacetylation cytoblot / differential cytotoxicity); type: cell-based; conditions: transformed cell lines (e.g. HeLa, A549, MCF-7); cell line not specified
Experimental: These two secondary assays evaluates a compound's ability to inhibit HDAC in cells by measuring cellular histone acetylation levels. The cytoblot facilitates quantitative EC50 information for cellular HDAC inhibition. Transformed cell lines (e.g. HeLa, A549, MCF-7) are cultured under standard media and culture conditions prior to plating.
Cells (approx. 2,500/well) are allowed to adhere 10-24 hours to wells of a 384-well Greiner PS assay plate in media containing 1-5% serum. Cells are treated with appropriate compound and specific concentrations for 0 to 24 hours. Cells are washed once with PBS (60 ul) and then fixed (95% ethanol, 5% acetic acid or 2% PFA) for 1 minute at RT (30 ul). Cells are blocked with 1% BSA for 1 hour and washed and stained with antibody (e.g. anti-Acetylated Histone H3, Upstate Biotechnology), followed by washing and incubation with an appropriate secondary antibody conjugated to HRP or fluorophore. For luminescence assays, signal is generated using Luminol substrate (Santa Cruz Biotechnology) and detected using an Aquest plate reader (Molecular Devices).
Differential Cytotoxicity Assay:
HDAC inhibitors display differential cytotoxicity toward certain transformed cell lines. Cells are cultured according to standard ATCC recommended conditions that are appropriate to each cell type. Compounds were tested for their ability to kill different cell types (normal and transformed) using the ATPlite luminescence ATP detection assay system (Perkin Elmer). Assays are run in either 384-well or 1536-well Greiner PS plates. Cells (30 ul or 5 ul, respectively) are dispensed using either multichannel pipette for 384-well plates, or proprietary Kalypsys bulk liquid dispenser for 1536-well plates. Compounds added using proprietary pin-transfer device (500 nL or 5 nL) and incubated 5 to 30 hours prior to analysis. Luminescence is measured using Aquest plate reader (Molecular Devices).

SMILES	IC50 (HDAC)	IC50 (HDAC in cells)
CC(=O)SCC(=O)c1ccc(NS(=O)(=O)c2cccc(Cl)c2)cc1 [Example 37]	< 1000 nM	< 1000 nM
CC(=O)SCC(=O)c1ccc(NS(=O)(=O)c2ccccc2Cl)cc1 [Example 38]	< 1000 nM	< 1000 nM
CC(=O)SCC(=O)c1cccc(NS(=O)(=O)c2ccc(OC(F)(F)F)cc2)c1 [Example 39]	< 1000 nM	< 1000 nM
CC(=O)SCC(=O)c1ccccc1NS(=O)(=O)c1ccc(OC(F)(F)F)cc1 [Example 40]	< 10000 nM	> 50000 nM
CC(=O)SCC(=O)c1ccc(NS(=O)(=O)c2cccc(OC(F)(F)F)c2)cc1 [Example 41]	< 1000 nM	< 1000 nM
CC(=O)SCC(=O)c1ccc(NS(=O)(=O)c2cccc(F)c2)cc1 [Example 46]	< 1000 nM	< 1000 nM
CC(=O)SCC(=O)c1ccc(NS(=O)(=O)c2ccc(OC(F)(F)F)cc2)cc1F [Example 47, Thioacetic acid S-{2-[2-fluoro-4-(4-trifluoromethoxy-benzenesulfonylamino)-phenyl]-2-oxo-ethyl}ester]	< 1000 nM	< 1000 nM
CC(=O)SCC(=O)c1ccc2c(c1)CCN2S(=O)(=O)c1ccccc1 [Example 48, Thioacetic acid S-[2-(1-benzenesulfonyl-2,3-dihydro-1H-indol-5-yl)-2-oxo-ethyl]ester]	< 1000 nM	< 10000 nM
CC(=O)SCC(=O)c1ccc2c(ccn2S(=O)(=O)c2ccccc2)c1 [Example 49, Thioacetic acid S-[2-(1-benzenesulfonyl-1H-indol-5-yl)-2-oxo-ethyl]ester]	< 1000 nM	< 1000 nM
COc1cccc(S(=O)(=O)Nc2ccc(C(=O)CSC(C)=O)cn2)c1 [Example 50, Thioacetic acid S-{2-[6-(3-methoxy-benzenesulfonylamino)-pyridin-3-yl]-2-oxo-ethyl}ester]	< 1000 nM	< 1000 nM
CC(=O)SCC(=O)c1ccc(NS(=O)(=O)c2ccccn2)cc1 [Example 51, Thioacetic acid S-{2-oxo-2-[4-(pyridine-2-sulfonylamino)-phenyl]-ethyl}ester]	< 1000 nM	< 1000 nM
CC(=O)SCC(=O)c1ccc(NS(=O)(=O)c2cccnc2)cc1 [Example 52, Thioacetic acid S-{2-oxo-2-[4-(pyridine-3-sulfonylamino)-phenyl]-ethyl}ester]	< 1000 nM	< 10000 nM
CC(=O)SCC(=O)c1ccc2c(c1)CCN2S(=O)(=O)c1ccccn1 [Example 53, Thioacetic acid S-{2-oxo-2-[1-(pyridine-2-sulfonyl)-2,3-dihydro-1H-indol-5-yl]-ethyl}ester]	< 1000 nM	< 1000 nM
